These are literature values, as cited in paper PMC9344054, “Studies on Chemical Characterization of Ginkgo Amillaria Oral Solution and Its Drug–Drug Interaction With Piceatannol 3′-O-β-D-Glucopyranoside for Injection” (Frontiers in Pharmacology, 2022).

For data set [1], the system named is most human UGTs, including UGT1A1, 1A3, 1A4, 1A6, 1A7, 1A8, and 1A9. Also noted: method as in Lv et al., 2018. To be noted: UGT1A1, 1A3, 1A4, 1A6, 1A7, 1A8, 1A9; ref Lv et al., 2018; cited from earlier work.
Details of data set [2]: method as in Zhao et al., 2006. To be noted: pretreatment of GBE 100 mg kg−1 for 10 days; ref Zhao et al., 2006; cited from earlier work.
For the next data set, the system named is human hepatic UGT1A1. Also noted: method as in Cao et al., 2017. To be noted: in vitro; ref Cao et al., 2017; cited from earlier work.
In a further data set the test system is human hepatic UGT1A4. On the set-up: method as in Cao et al., 2017. To be noted: in vitro; ref Cao et al., 2017; cited from earlier work.
On the set-up of data set [3]: method as in Fan et al., 2009. To be noted: ten healthy male volunteers, ref Fan et al., 2009, cited from earlier work.
A further data set has as its system P-glycoprotein. On the set-up: method as in An et al., 2011; Palatini and De Martin, 2016. To be noted: previous studies; ref An et al., 2011; Palatini and De Martin, 2016; cited from earlier work.
Data set [4] relates to breast cancer resistance protein. On the set-up: method as in An et al., 2011; Palatini and De Martin, 2016. To be noted: ref An et al., 2011; Palatini and De Martin, 2016; cited from earlier work.
The subject of a further data set is UGT1A3. Also noted: method as in Zhang et al., 2021. To be noted: ref Zhang et al., 2021; cited from earlier work.
For a further data set, the system named is UGT1A1. On the set-up: method as in Zhang et al., 2021. To be noted: ref Zhang et al., 2021; cited from earlier work.
Another data set relates to UGT1A9. On the set-up: method as in Zhang et al., 2021. To be noted: ref Zhang et al., 2021; cited from earlier work.
Another data set relates to UGT1A6. On the set-up: method as in Zhang et al., 2021. To be noted: ref Zhang et al., 2021; cited from earlier work.

The structures appear in SMILES notation.

In the case of `O=c1cc(-c2ccc(O)c(-c3c(O)cc(O)c4c(=O)cc(-c5ccc(O)cc5)oc34)c2)oc2cc(O)cc(O)c12` [amentoflavone], the “inhibition toward most human UGTs” value in data set [1] is given as “strong inhibition”.
Consider `CC(C)NCC(O)COc1cccc2ccccc12` (stereo not shown) [propranolol], for which, in [2], the “change of AUC of propranolol” value was “significantly reduce” and the “change of C max of propranolol” value was “significantly reduce”.
As for `O=c1cc(-c2ccc(O)c(O)c2)oc2cc(O)cc(O)c12` [luteolin], in the data set on human hepatic UGT1A1, the “inhibition of human hepatic UGT1A1” value is listed as “inhibited”. Further, the “inhibition of human hepatic UGT1A4” value in the data set on human hepatic UGT1A4 is recorded as “inhibited”.
On to `CC(C)(C)NCC(O)COc1ccc(NC(=O)NC2CCCCC2)cc1` (stereo not shown) [talinolol], for which, in data set [3] (repeated ingestion of GBE), the “increase of AUC0-24 of talinolol” value is recorded as 26% and the “increase of C max of talinolol” value is listed as 36%. Moreover, the “effect on pharmacokinetics of talinolol” value in data set [3] (single dose of GBE orally) was “did not affect”.
For the compound `O=c1c(O)c(-c2ccc(O)cc2)oc2cc(O)cc(O)c12` [kaempferol], the “inhibition of the P-glycoprotein-mediated efflux of ritonavir” value with P-glycoprotein was “remarkable inhibition”. For the same compound, the “inhibition of breast cancer resistance protein” value in data set [4] is given as “inhibitor”.
As to `O=c1c(O)c(-c2ccc(O)c(O)c2)oc2cc(O)cc(O)c12` [quercetin], the “inhibition of human hepatic UGT1A1” value with human hepatic UGT1A1 is listed as “inhibited”. In addition, the “inhibition of UGT1A3” value with UGT1A3 is “moderate inhibitor”. Besides, in the data set with UGT1A1, the “inhibition of UGT1A1” value was “moderate inhibitor”. The “inhibition of human hepatic UGT1A4” value with human hepatic UGT1A4 is reported as “inhibited”. In addition, the “inhibition of UGT1A9” value in the data set with UGT1A9 was “strong inhibitor”. In the data set with UGT1A6, the “inhibition of UGT1A6” value is given as “weak inhibitor”.
